The record followed here is US20230109839A1, “THERAPEUTIC AGENT FOR TAUOPATHIES” (SUMITOMO PHARMA CO., LTD., priority 2020, published 2023).

This experiment has as its target T1, human Nav1.1 (Homo sapiens, UniProt P35498).
T1 construct: host or cells: HEK293
The experiment is described as follows: Amplification of Nav1.1-derived voltage-gated sodium current (Nav1.1 current), automated patch clamp (Test 1). It counts as cell-based. A digest of the protocol: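 Compound-induced change in ramp-evoked sodium current peak and AUC was expressed as 100×post/pre ratio minus 100. Recordings used automated patch clamp in voltage-clamp mode on a stable human Nav1.1 HEK293 line, including only cells above 500 pA. Compounds were delivered in extracellular fluid containing 1% DMSO.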

[1] abbreviates: Concentration for evaluation 1 μM, HEK293 cell line stably expressing human Nav1.1.
[2] abbreviates: Concentration for evaluation 10 μM, HEK293 cell line stably expressing human Nav1.1.
[3] abbreviates: Concentration for evaluation 50 μM, HEK293 cell line stably expressing human Nav1.1.
The mark [4] stands for this setting: Concentration for evaluation 3 μM, HEK293 cell line stably expressing human Nav1.1.
Where [5] appears, read: concentration for evaluation 1 μM, HEK293 stably expressing human Nav1.1.

Like-named read-outs stand apart in the source and are kept apart here.

With `O=C(Cn1ncc2cnc(-c3ccc(C(F)(F)F)s3)nc21)Nc1ccn2ncnc2c1` [Example 779], under setting [1], the “Nav1.1 current amplification rate (%)” value amounted to 44%. Still for that read-out and setting: next, `O=C(Cn1ncc2cnc(N3CCC4(CCC4)CC3)nc21)Nc1ccn2ncnc2c1` [Example 766]: 41%.

Consider `CC1CCN(c2ccc(=O)n(CC(=O)Nc3cccc(-c4nccs4)c3)n2)CC1` [Example 80], for which, under setting [2], the “Nav1.1 current amplification rate (%)” value amounted to 131%. As for `CC1CC=C(c2ccc(=O)n(CC(=O)Nc3ccc4nncn4c3)n2)CC1` (centres unmarked) [Example 341], the “Nav1.1 current amplification rate (%)” value under setting [3] is 202%. With `CCC1CC=C(c2cnc3cnn(CC(=O)Nc4ccc5ncnn5c4)c3n2)CC1` (centres unmarked) [Example 650], the “Nav1.1 current amplification rate (%)” value under setting [1] is listed as 26%.

`COc1cc(N2CCN(C(=O)Cn3nc(C4=CCC(C)CC4)ccc3=O)CC2)ccc1F` (centres unmarked) [Example 413]: the “Nav1.1 current amplification rate (%)” value under setting [4] amounted to 27%. As to `COc1cc(NC(=O)Cn2nc(N3CCC(C)CC3)ccc2=O)ccn1` [Example 74], under setting [2], the “Nav1.1 current amplification rate (%)” value stood at 70%.

As for `Cc1cc(NC(=O)Cn2ncc3ncc(N(C)C4CCC4)nc32)cc2ncnn12` [Example 687], the “Nav1.1 current amplification rate (%)” value under setting [1] amounted to 67%. In the case of `O=C(Cn1ncc2cnc(N3CCC4(CC4)C(F)(F)C3)nc21)Nc1ccc(-n2ccnc2)nc1` [Example 824], under setting [5], the “Nav1.1 current amplification rate (%)” value amounted to 240%. For `CC1CCN(c2ccc(=O)n(CC(=O)Nc3cncc(Cl)c3)n2)CC1` [Example 63], the “Nav1.1 current amplification rate (%)” value under setting [2] is given as 49%. In the case of `Cc1c(NC(=O)Cn2nc(C3=CCC(C)CC3)ccc2=O)ccc2ncnn12` (centres unmarked) [Example 353], under setting [3], the “Nav1.1 current amplification rate (%)” value was 32%. Take `CC1CC=C(c2ccc(=O)n(CC(=O)Nc3ccc4ncnn4n3)n2)CC1` (centres unmarked) [Example 350]: the “Nav1.1 current amplification rate (%)” value under setting [1] came to 31%.

For `CC1CCN(c2ccc(=O)n(CC(=O)Nc3ccc(F)nc3)n2)CC1` [Example 58], the “Nav1.1 current amplification rate (%)” value under setting [2] came to 26%. With `CC1CCN(c2ccc3cnn(CC(=O)Nc4ccn5ccnc5c4)c3n2)CC1` [Example 870], under setting [5], the “Nav1.1 current amplification rate (%)” value was determined as 120%. For the molecule `CC1CC=C(c2ccc(=O)n(CC(=O)Nc3ccc4ncncc4c3)n2)CC1` (centres unmarked) [Example 355], under setting [1], the “Nav1.1 current amplification rate (%)” value worked out at 130%. As for `N#Cc1ccc(NC(=O)Cn2nc(C3CCCCC3)ccc2=O)cc1` [Example 40], under setting [2], the “Nav1.1 current amplification rate (%)” value is 20%. Consider `CC1CCN(c2ncc3cnn(CC(=O)Nc4cnc(C#N)cn4)c3n2)CC1(F)F` (centres unmarked) [Example 847], for which the activation at 1 µM (HEK293, concentration for evaluation 1 μM, HEK293 stably expressing human Nav1.1, read-out: Nav1.1 current amplification rate (%)) turned out to be 132%. As to `CC1CCN(c2ccc(=O)n(CC(=O)Nc3cccc(-n4ccnc4)c3)n2)CC1` [Example 67], the “Nav1.1 current amplification rate (%)” value under setting [2] stood at 177%. On the same count and under the same terms, the value for `COc1cnc(C2=CCN(C(=O)Cn3nc(C4=CCC(C)CC4)ccc3=O)CC2)cn1` (centres unmarked) [Example 399] was 102%. As for `O=C(Cn1ncc2cnc(N3CC(C4CC4)C3)nc21)Nc1ccn2ncnc2c1` [Example 782], the “Nav1.1 current amplification rate (%)” value under setting [3] is recorded as 64%.

For `Cc1cc(NC(=O)Cn2ncc3ncc(N(C)C4CCCC4)nc32)cc2nccn12` [Example 684], the “Nav1.1 current amplification rate (%)” value under setting [1] is listed as 39%. In the case of `CN(c1cnc2cnn(CC(=O)Nc3ccc4ncccc4n3)c2n1)C1CC1` [Example 725], under setting [2], the “Nav1.1 current amplification rate (%)” value amounted to 51%.

As for `CC12CCC(CN(c3ccc(=O)n(CC(=O)Nc4ccc(C#N)cc4)n3)C1)C2(C)C` (centres unmarked) [Example 23], the “Nav1.1 current amplification rate (%)” value under setting [2] came to 28%. In the case of `COc1cc(=O)n(CC(=O)N2CCN(c3cncc(F)c3)CC2)nc1C1=CCC(C(F)(F)F)CC1` (centres unmarked) [Example 486], the “Nav1.1 current amplification rate (%)” value under setting [2] is 148%. Turning to `O=C(Cn1ncc2ncc(N3CCC4(CC4)C(F)(F)C3)nc21)Nc1ccc(-n2ccnc2)nc1` [Example 747], the activation at 1 µM (HEK293, Concentration for evaluation 1 μM, HEK293 cell line stably expressing human Nav1.1, read-out: Nav1.1 current amplification rate (%)) was determined as 73%.

Consider `Cc1cc(NC(=O)Cn2nc(C3=CCC(C)CC3)ccc2=O)cc2ncoc12` (centres unmarked) [Example 323], for which the “Nav1.1 current amplification rate (%)” value under setting [4] came to 154%. Take `CO[C@H]1CCN(Cc2cccc3c2CCN3C(=O)Cn2nc(C3=CCC(C)CC3)ccc2=O)C1` (some centres unmarked) [Example 272]: under setting [1], the “Nav1.1 current amplification rate (%)” value is reported as 127%.

`CCN(C)c1cnc2cnn(CC(=O)Nc3ccn4ncnc4c3)c2n1` [Example 623]: under setting [2], the “Nav1.1 current amplification rate (%)” value was 25%.

Take `CC1CC=C(c2ccc(=O)n(CC(=O)Nc3ccc(C#N)cc3)n2)CC1` (centres unmarked) [Example 41]: under setting [2], the “Nav1.1 current amplification rate (%)” value was 324%.

`CC1CC=C(c2ccc(=O)n(CC(=O)NC3CN(c4ccccc4)C3)n2)CC1` (centres unmarked) [Example 372]: under setting [2], the “Nav1.1 current amplification rate (%)” value was 52%. Consider `CC1(C)CC=C(c2cnc3cnn(CC(=O)Nc4ccc5ncnn5c4)c3n2)CC1` [Example 649], for which, under setting [1], the “Nav1.1 current amplification rate (%)” value turned out to be 91%. Take `CC1CCN(c2ccc(=O)n(CC(=O)Nc3ccc4cnn(C)c4c3)n2)CC1` [Example 83]: under setting [2], the “Nav1.1 current amplification rate (%)” value is listed as 45%. With `Cc1cc(NC(=O)Cn2nc(C3=CCC(C)CC3)ccc2=O)cc2ncnn12` (centres unmarked) [Example 352], under setting [1], the “Nav1.1 current amplification rate (%)” value was 155%. On to `CC1CC=C(c2ccc(=O)n(CC(=O)Nc3ccc4nccn4n3)n2)CC1` (centres unmarked) [Example 346], for which the “Nav1.1 current amplification rate (%)” value under setting [1] is given as 96%.

For `CN1CCN(c2cccc3c2CCN3C(=O)Cn2ncc3ncc(N(C)C4CCC4)nc32)CC1` [Example 697], under setting [1], the “Nav1.1 current amplification rate (%)” value is 21%. Same read-out and setting: the value for `CC1CC=C(c2ccc(=O)n(CC(=O)Nc3ccc(-n4ccnc4)nc3)n2)CC1` (centres unmarked) [Example 377] was 134%. For the molecule `Cc1nc2ccc(NC(=O)Cn3nc(N4CCC(C)CC4)ccc3=O)cc2o1` [Example 68], the “Nav1.1 current amplification rate (%)” value under setting [2] came to 42%. As for `CC1CC=C(c2ccc(=O)n(CC(=O)Nc3ccn4ccnc4n3)n2)CC1` (centres unmarked) [Example 242], the “Nav1.1 current amplification rate (%)” value under setting [2] worked out at 97%.

Regarding `CN(c1cnc2cnn(CC(=O)Nc3ccc4ncnn4c3)c2n1)C1CCCC1` [Example 669], the “Nav1.1 current amplification rate (%)” value under setting [1] is 30%. In the case of `CC1(C)CCN(c2ccc3cnn(CC(=O)Nc4ccn5ncnc5c4)c3n2)C1` [Example 857], the “Nav1.1 current amplification rate (%)” value under setting [5] is listed as 18%. For `CC1CC=C(c2ccc(=O)n(CC(=O)N3CCc4c3ccc(F)c4-c3ccnnc3)n2)CC1` (centres unmarked) [Example 295], the “Nav1.1 current amplification rate (%)” value under setting [1] is on record as 95%. Regarding `CC1CCN(c2ncc3cnn(CC(=O)Nc4ccc5ncnn5c4)c3n2)CC1(F)F` (centres unmarked) [Example 815], under setting [5], the “Nav1.1 current amplification rate (%)” value worked out at 86%.

As to `N#Cc1ccc(NC(=O)Cn2nc(N3CCCC(C(F)(F)F)C3)ccc2=O)cc1` (centres unmarked) [Example 16], the “Nav1.1 current amplification rate (%)” value under setting [2] was 59%. In the case of `CC1(C)CC=C(c2ccc(=O)n(CC(=O)N3CCc4c(N5CCOCC5)cccc43)n2)CC1` [Example 432], the “Nav1.1 current amplification rate (%)” value under setting [1] is 280%. Regarding `CN(c1ccc2cnn(CC(=O)N3CCc4c(C5CC5)cccc43)c2n1)C1CC1` [Example 887], the activation at 0.3 µM (HEK293, concentration for evaluation 0.3 μM, HEK293 stably expressing human Nav1.1, read-out: Nav1.1 current amplification rate (%)) amounted to 173%. For `Cc1ccc(-c2ccc(=O)n(CC(=O)Nc3ccc4ocnc4c3)n2)s1` [Example 455], the “Nav1.1 current amplification rate (%)” value under setting [2] amounted to 131%. Regarding `CC1(C)CCN(c2ccc(=O)n(CC(=O)Nc3ccc(C#N)cc3)n2)C1` [Example 21], the “Nav1.1 current amplification rate (%)” value under setting [2] turned out to be 130%. The same measure, in the same setting: the value for `O=C(Cn1nc(C2=CCCC2)ccc1=O)N1CCc2c(N3CCOCC3)cccc21` [Example 481] was 128%. Take `CN(c1cnc2cnn(CC(=O)N3Cc4ccc(Br)cc4C3)c2n1)C1CC2(CC2)C1` [Example 751]: under “HEK293, Concentration for evaluation 10 μM, HEK293 cell line stably expressing human Nav1.1, read-out: Nav1.1 current amplification rate (%)”, the activation at 10 µM is 121%. Turning to `CC1CC=C(c2ccc(=O)n(CC(=O)Nc3ccc(CO)nc3)n2)CC1` (centres unmarked) [Example 376], under setting [2], the “Nav1.1 current amplification rate (%)” value is on record as 44%.
